Results as given in patent US20120270237A9, “METHODS FOR THE IDENTIFICATION OF KINASE INTERACTING MOLECULES AND FOR THE PURIFICATION OF KINASE PROTEINS” (Cellzone AG, priority 2009, published 2012).

Key:
Test in all cases: Kinobeads competition binding, HL60 cell lysate
Set-up in all cases: endogenous in cells; host or cells: HL60
Details in all cases: 10 μM free compound
[1] = molecular target: MYT1 (Homo sapiens, UniProt Q99640)
Procedure: (§1) To one aliquot of cell lysate 10 μM of the free compound (FIG. 3, CZC31326) was added and allowed to bind to proteins in the lysate. Then the affinity matrix with the immobilized compound (Example 1) was added to capture proteins that were not interacting with the previously added free compound. Beads were separated from the lysate and bead bound proteins were eluted in SDS sample buffer and subsequently separated by SDS-Polyacrylamide gel electrophoresis (FIG. 4). Suitable gel bands were cut out and subjected to in-gel proteolytic digestion with trypsin. The second lysate aliquot was processed identically, however no free compound was added (DMSO solvent control). Peptides originating from samples 1 and 2 were labeled with iTRAQ reagents (iTRAQ 114 and iTRAQ 117) and the combined samples were analyzed with a nano-flow liquid chromatography system coupled online to a tandem mass spectrometer (LC-MS/MS) experiment followed by iTRAQ reporter ion quantification in the MS/MS spectra (Ross et al., 2004. Mol. Cell. Proteomics 3(12):1154-1169). Further experimental protocols can be found in WO2006/134056 and a previous publication (Bantscheff et al., 2007. Nature Biotechnology 25, 1035-1044). Sepharose-beads with the immobilized compound (100 μl beads per pull-down experiment) were equilibrated in lysis buffer and incubated with a cell lysate sample containing 50 mg of protein on an end-over-end shaker (Roto Shake Genie, Scientific Industries Inc.) for 2 hours at 4° C. Beads were collected, transferred to Mobicol-columns (MoBiTech 10055) and washed with 10 ml lysis buffer containing 0.4% NP40 detergent, followed by 5 ml lysis buffer containing 0.2% detergent. To elute bound proteins, 60 μl 2×SDS sample buffer was added to the column. The column was incubated for 30 minutes at 50° C. and the eluate was transferred to a siliconized microfuge tube by centrifugation. Proteins were then alkylated with 108 mM iodoacetamid. Proteins were then separated by SDS-Polyacrylamide electrophoresis (SDS-PAGE). The peptide extracts of samples treated with 10 μM of free compound (CZC31326) and the solvent control (0.5% DMSO) were treated with different variants of the isobaric tagging reagent (iTRAQ Reagents Multiplex Kit, part number 4352135, Applied Biosystems, Foster City, Calif., USA). The iTRAQ reagents are a set of multiplexed, amine-specific, stable isotope reagents that can label peptides on amino groups in up to four different biological samples enabling simultaneous identification and quantitation of peptides. The iTRAQ reagents were used according to instructions provided by the manufacturer. The samples were resuspended in 10 μl 50 mM TEAB solution, pH 8.5 and 10 μl ethanol were added. The iTRAQ reagent was dissolved in 120 μl ethanol and 10 μl of reagent solution were added to the sample. The labeling reaction was performed at room temperature for one hour on a horizontal shaker and stopped by adding 5 μl of 100 mM TEAB and 100 mM glycine in water. The two labeled sampled were then combined, dried in a vacuum centrifuge and resuspended in 10 μl of 0.1% formic acid in water. Relative protein quantitation was performed using peak areas of iTRAQ reporter ion signals essentially as described in an earlier publication (Bantscheff et al., 2007. Nature Biotechnology 25, 1035-1044).

[2] = molecular target: HIPK2 (Homo sapiens, UniProt Q9H2X6)
HIPK2, sequence (Q9H2X6 whole entry): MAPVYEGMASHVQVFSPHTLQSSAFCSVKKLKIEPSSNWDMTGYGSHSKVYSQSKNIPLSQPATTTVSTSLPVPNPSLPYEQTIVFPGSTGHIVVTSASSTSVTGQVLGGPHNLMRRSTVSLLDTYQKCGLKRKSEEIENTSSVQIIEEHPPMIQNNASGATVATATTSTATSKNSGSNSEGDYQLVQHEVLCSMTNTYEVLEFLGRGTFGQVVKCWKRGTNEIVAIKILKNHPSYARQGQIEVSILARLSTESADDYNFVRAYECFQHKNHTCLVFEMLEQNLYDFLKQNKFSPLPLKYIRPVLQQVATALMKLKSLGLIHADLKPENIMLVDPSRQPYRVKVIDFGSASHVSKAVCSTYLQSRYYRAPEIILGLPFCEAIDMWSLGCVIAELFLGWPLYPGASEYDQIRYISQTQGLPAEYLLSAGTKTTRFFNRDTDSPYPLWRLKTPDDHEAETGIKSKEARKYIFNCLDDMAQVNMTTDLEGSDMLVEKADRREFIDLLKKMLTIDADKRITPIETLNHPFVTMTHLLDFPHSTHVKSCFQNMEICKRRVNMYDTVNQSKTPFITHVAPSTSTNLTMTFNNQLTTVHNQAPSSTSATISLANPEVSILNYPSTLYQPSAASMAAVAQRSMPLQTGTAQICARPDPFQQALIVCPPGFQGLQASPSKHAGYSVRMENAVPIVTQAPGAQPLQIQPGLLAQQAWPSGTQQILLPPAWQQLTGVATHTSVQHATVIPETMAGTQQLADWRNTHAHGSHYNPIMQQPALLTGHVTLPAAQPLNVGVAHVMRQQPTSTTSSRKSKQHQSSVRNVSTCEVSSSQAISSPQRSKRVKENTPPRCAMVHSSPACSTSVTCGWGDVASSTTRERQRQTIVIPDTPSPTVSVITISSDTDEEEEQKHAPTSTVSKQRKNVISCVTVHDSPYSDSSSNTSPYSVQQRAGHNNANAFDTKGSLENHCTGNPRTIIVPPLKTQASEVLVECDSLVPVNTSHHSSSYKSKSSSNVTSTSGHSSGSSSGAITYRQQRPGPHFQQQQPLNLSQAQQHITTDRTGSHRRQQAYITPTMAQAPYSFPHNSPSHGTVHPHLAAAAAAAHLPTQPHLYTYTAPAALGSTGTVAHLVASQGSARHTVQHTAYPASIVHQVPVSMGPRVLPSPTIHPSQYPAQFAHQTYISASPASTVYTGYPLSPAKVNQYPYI
Procedure: as §1

[3] = molecular target: T1, TAO3 (Homo sapiens, UniProt Q9H2K8)
T1 sequence (Q9H2K8 1-898): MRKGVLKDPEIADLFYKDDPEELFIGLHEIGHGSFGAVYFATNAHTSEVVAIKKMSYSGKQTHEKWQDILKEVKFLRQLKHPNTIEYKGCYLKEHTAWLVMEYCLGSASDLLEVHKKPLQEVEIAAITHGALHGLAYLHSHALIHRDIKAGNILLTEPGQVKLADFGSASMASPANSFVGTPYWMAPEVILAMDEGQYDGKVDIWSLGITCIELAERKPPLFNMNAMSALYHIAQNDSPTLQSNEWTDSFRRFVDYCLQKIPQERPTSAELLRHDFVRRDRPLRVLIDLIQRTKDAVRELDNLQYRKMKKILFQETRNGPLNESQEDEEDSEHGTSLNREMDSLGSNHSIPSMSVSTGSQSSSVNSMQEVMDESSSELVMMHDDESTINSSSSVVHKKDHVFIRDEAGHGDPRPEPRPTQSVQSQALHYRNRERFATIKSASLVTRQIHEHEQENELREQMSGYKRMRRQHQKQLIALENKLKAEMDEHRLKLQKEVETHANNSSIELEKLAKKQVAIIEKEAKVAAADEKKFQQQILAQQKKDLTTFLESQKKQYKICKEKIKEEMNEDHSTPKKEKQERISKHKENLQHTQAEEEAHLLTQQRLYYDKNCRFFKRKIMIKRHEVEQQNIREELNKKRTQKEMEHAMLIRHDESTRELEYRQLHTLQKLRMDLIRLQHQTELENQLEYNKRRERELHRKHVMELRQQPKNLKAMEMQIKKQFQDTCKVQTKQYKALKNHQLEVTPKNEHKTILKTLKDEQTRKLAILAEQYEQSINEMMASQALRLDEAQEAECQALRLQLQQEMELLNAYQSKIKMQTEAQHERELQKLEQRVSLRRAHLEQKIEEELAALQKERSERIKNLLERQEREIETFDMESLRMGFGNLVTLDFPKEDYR
Procedure: as §1

[4] = molecular target: TYK2 (Homo sapiens, UniProt P29597)
TYK2, sequence (P29597 whole entry): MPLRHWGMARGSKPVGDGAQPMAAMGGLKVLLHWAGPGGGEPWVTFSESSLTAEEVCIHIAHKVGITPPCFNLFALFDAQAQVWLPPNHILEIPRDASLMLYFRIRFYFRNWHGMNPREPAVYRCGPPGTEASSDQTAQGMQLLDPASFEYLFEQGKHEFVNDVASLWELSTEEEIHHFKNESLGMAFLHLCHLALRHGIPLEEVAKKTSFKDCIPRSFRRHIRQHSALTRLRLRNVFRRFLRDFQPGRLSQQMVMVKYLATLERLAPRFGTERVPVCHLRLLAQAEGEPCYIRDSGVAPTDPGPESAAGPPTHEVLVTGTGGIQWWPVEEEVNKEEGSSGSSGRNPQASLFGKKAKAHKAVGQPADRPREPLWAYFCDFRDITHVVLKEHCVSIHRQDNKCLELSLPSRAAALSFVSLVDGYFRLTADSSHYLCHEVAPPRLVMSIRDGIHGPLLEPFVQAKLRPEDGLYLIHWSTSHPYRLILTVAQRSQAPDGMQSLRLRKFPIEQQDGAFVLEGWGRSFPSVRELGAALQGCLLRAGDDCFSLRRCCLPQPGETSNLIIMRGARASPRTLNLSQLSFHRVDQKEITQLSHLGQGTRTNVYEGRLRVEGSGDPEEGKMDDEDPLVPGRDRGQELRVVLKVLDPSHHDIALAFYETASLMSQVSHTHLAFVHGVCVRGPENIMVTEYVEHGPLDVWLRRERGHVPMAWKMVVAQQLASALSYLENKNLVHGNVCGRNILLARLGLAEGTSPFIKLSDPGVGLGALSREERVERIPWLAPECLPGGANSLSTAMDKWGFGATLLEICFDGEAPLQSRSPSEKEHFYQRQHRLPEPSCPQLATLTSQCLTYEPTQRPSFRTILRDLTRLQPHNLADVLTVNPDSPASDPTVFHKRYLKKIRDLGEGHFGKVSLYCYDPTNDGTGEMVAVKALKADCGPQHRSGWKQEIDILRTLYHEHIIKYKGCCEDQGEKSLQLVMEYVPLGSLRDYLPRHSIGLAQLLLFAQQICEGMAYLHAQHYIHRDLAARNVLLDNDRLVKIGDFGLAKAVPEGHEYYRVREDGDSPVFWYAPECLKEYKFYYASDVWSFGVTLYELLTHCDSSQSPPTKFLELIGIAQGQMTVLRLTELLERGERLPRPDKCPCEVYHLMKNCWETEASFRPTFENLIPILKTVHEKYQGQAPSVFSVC
Procedure: as §1

[5] = molecular target: T2, IRAK4 (Homo sapiens, UniProt Q9NWZ3)
T2 sequence (Q9NWZ3 1-460): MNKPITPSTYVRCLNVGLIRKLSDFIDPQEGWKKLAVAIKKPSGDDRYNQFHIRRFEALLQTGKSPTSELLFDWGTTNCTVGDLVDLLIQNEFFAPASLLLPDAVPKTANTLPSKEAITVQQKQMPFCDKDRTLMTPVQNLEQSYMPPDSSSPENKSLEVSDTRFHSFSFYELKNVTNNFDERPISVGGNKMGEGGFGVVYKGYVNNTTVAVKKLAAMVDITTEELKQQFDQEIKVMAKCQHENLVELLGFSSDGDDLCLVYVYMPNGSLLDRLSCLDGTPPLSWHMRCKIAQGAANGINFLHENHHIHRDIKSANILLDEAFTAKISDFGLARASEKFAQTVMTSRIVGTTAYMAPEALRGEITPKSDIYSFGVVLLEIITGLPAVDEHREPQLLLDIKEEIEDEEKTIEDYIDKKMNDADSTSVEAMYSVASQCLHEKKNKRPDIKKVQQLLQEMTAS
Procedure: as §1

MYT1, sequence (Q99640 whole entry): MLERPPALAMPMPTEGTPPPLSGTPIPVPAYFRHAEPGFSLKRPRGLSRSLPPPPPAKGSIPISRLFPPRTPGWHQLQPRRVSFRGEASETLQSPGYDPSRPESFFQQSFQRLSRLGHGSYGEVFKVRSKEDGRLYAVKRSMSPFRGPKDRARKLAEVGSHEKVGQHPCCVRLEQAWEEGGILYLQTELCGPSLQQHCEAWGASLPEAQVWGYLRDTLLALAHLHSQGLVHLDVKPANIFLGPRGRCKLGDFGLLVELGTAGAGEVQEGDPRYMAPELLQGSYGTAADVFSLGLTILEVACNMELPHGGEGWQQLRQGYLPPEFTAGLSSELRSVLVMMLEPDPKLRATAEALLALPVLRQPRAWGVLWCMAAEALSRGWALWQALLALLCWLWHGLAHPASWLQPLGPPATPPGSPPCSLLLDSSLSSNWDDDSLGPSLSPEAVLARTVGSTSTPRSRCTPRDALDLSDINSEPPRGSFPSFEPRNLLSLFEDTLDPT

Competition % [1]: 90.5% | inhibition at 10 µM [2]: 94.4% | inhibition at 10 µM [3]: 98% | Competition % [4]: 97.1% | Competition % [5]: 97.5%
Structure (SMILES): CS(=O)(=O)Nc1ccccc1Nc1nc(Nc2cccc(OCCN)c2)ncc1Cl [CZC31326, N-(2-(2-(3-(2-aminoethoxy)phenylamino)-5-chloropyrimidin-4-ylamino)phenyl)methanesulfonamide]
